EP4342530A1, “SORTILIN MODULATORS” (Insusense ApS, priority 2022, dated 2024)

What was measured:
[1] = target: T1, Sortilin (Mus musculus, UniProt Q6PHU5); assay: Creoptix (GCI) binding kinetics, mouse Sortilin; settings: Species Mouse, screened at 1 µM, 25 degrees Celsius
T1 construct: purchased Bio-Techne Ltd 2934-ST-050
T1 sequence (Q6PHU5 76-753 limits assumed): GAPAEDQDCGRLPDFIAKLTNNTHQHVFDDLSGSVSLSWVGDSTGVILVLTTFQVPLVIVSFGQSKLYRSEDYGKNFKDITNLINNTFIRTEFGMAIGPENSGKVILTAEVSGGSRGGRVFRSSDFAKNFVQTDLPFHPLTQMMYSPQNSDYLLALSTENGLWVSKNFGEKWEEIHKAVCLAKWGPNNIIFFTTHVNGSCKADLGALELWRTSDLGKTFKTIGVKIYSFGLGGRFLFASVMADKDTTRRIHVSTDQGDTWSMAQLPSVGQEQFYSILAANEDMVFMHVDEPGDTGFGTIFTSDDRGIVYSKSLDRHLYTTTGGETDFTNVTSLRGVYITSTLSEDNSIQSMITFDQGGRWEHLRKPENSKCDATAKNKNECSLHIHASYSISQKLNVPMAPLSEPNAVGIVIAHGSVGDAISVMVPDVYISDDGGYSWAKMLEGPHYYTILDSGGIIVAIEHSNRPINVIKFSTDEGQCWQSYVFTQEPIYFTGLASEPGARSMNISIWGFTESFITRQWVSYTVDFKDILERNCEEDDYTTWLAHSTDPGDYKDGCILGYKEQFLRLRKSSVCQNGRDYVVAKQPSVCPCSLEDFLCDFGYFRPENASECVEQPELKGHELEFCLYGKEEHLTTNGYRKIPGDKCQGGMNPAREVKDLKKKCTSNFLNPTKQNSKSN
Description: (§1) Creoptix (GCI) method - using SEQ ID NO.4 (Murine sortillin)
(§2) A protein, bound to a surface, is bathed in a solution containing potential ligands giving rise to binding kinetics to generate Kon and Koff rates, as well as a Kd.
(§3) All buffers described were filtered using a 0.2µm filter (Product number: 10300461, Nalgene) and degassed for 15 minutes prior to use.
(§4) A flow cell temperature of 25 degrees Celsius was used throughout the experiment.
(§5) A 4PCH chip was conditioned across all flow cells using 0.2 X concentration running buffer (running buffer composition: 1XHBS-N, pH 7.4, 3.4 mM EDTA, 1% DMSO) using pre-set conditioning wizard (WAVE control software) injecting: 0.1 M borate, 1 M NaCl (pH 9) followed by three start-up injections of 0.2 X running buffer.
(§6) A buffer exchange was performed and 1x running buffer (1XHBS-N, pH 7.4, 3.4 mM EDTA, 1% DMSO) used during the immobilisation procedure: An initial injection of EDC/NHS (mixed in 1:1 ratio) was performed across all 4-flow cells to activate the surface for amine coupling of ligands.
(§7) Recombinant Sortilin aliquots were thawed quickly by hand and centrifuged at 13,300 rpm for 10 minutes. A 10 µg/ml protein solution was then made in pH 5.0 acetate and injected once for 20 minutes over flow-cells 2, 3 and 4 for human, human (flow cells 2 & 3), and mouse Sortilin respectively followed by a 60 second dissociation period.
(§8) A final 7-minute passivation injection of 50 mM tris was used across all flow cells.
(§9) A flow rate of 10 µl/min was used for all conditioning and immobilisation cycles.
(§10) Compounds were screened at 1 µM using the in-built 'intermediate binders' settings: 100 ul/min, 45 s baseline, 25 s association, 300 s dissociation, with blanks every 5th sample and a DMSO correction (1.5 % DMSO at the start and end of the experiment as well as every 20 cycles. An acquisition rate of 10 Hz was used throughout the experiment.
(§11) Compounds were screened at a final assay concentration of 1 µM and a final DMSO concentration was 1 %. To achieve this, compounds were diluted in DMSO from 10 mM stocks to 100 µM (100 x final assay concentration) then diluted 1:100 in running buffer which contained no DMSO to establish a final assay concentration of compound of 1 µM and a final DMSO concentration of 1 % [DMSO].
(§12) Compounds and DMSO were mixed by plate shaking at 1000 rpm for 60 seconds using a Bioshake instrument.
(§13) A flow rate of 100 µl/min was used throughout the experiment.
(§14) Data was evaluated using the RAPID kinetic analysis tool in the GCI WAVE_control software with data fitted using a standard 1:1 kinetic BioModel.

[2] = target: T2, Sortilin (Homo sapiens, UniProt Q99523); assay: Creoptix (GCI) binding kinetics, human Sortilin; settings: Species Human, screened at 1 µM, 25 degrees Celsius
T2 construct: purchased Bio-Techne Ltd 3154-ST-050
T2 sequence (Q99523 78-755 limits assumed): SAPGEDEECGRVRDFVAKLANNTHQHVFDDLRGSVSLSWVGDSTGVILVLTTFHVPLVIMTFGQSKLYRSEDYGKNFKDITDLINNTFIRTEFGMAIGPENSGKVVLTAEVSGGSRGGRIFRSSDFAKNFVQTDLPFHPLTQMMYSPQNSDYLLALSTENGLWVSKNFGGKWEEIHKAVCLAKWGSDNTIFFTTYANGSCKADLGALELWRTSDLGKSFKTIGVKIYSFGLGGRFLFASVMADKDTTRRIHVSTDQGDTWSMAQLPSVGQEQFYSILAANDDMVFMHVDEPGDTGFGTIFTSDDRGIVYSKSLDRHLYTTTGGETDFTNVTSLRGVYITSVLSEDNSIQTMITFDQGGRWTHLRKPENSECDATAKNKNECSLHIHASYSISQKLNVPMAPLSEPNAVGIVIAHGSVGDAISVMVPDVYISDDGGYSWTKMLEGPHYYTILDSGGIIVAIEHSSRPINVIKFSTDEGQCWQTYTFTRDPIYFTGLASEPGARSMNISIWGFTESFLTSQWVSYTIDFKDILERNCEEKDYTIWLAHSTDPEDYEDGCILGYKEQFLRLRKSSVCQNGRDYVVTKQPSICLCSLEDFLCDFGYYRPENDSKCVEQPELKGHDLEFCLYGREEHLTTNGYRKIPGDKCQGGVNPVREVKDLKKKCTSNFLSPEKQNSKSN
Description: as §1, §2, §3, §4, §5, §6, §7, §8, §9, §10, §11, §12, §13, §14

| Kd ([1]; Form of Compound Free acid) | Kd ([1]; Form of Compound Mesylate salt) | Kd ([2]; Form of Compound Free acid) | Kd ([2]; Form of Compound Mesylate salt) | Structure (SMILES) |
| --- | --- | --- | --- | --- |
| 258 nM | 258 nM | 120 nM | 221 nM | C[C@H](N[C@@H](CCC(C)(C)C)C(=O)O)c1ccc2c(c1)CCCO2 [Example 50] |
|  | 129 nM | 384 nM | 133 nM | C[C@@H](N[C@@H](CCC(C)(C)C)C(=O)O)c1ccc2c(c1)CCCO2 [Example 52] |
| 60 nM | 59.5 nM | 227 nM | 64.9 nM | C[C@@H](N[C@@H](CCC(C)(C)C)C(=O)O)c1ccc2c(c1)OCCC2 [Example 9] |
| 65 nM |  | 237 nM | 52 nM | CC(C)(C)CC[C@H](NCc1ccc2c(c1)COCC2)C(=O)O [Example 3, (S)-2-((isochroman-7-ylmethyl)amino)-5,5-dimethylhexanoic acid] |
